How the values were obtained:
Experiment in all cases: viability relative to DMSO control (fraction); higher = less drug effect (more viable cells)
Settings in all cases: 48 h
CPI-169 = compound: CCS(=O)(=O)N1CCC([C@@H](C)n2c(C)c(C(=O)NCc3c(OC)cc(C)[nH]c3=O)c3ccccc32)CC1 [CPI-169]
Method in brief: (§1)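 Compounds were pre-plated at five concentrations, one well each, in 384-well plates, and primary mononuclear tumour cells were plated on them at 4 × 10^4 cells per well. The cells, fresh or cryopreserved, had been Ficoll-isolated from blood or bone marrow or taken from processed lymph node. After 48 h at 37 °C and 5% CO2 in RPMI-1640 with penicillin/streptomycin, L-glutamine and human serum, viability was read as CellTiter-Glo luminescence relative to the median of 16 inner DMSO wells.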

Tofacitinib = compound: C[C@@H]1CCN(C(=O)CC#N)C[C@@H]1N(C)c1ncnc2[nH]ccc12 [Tofacitinib]
Method in brief: as §1

Everolimus = compound: CO[C@H]1C[C@@H]2CC[C@@H](C)[C@@](O)(O2)C(=O)C(=O)N2CCCC[C@H]2C(=O)O[C@H]([C@H](C)C[C@@H]2CC[C@@H](OCCO)[C@H](OC)C2)CC(=O)[C@H](C)/C=C(\C)[C@@H](O)[C@@H](OC)C(=O)[C@H](C)C[C@H](C)/C=C/C=C/C=C/1C [Everolimus]
Method in brief: as §1

EPZ-6438 = compound: CCN(c1cc(-c2ccc(CN3CCOCC3)cc2)cc(C(=O)NCc2c(C)cc(C)[nH]c2=O)c1C)C1CCOCC1 [EPZ-6438]
Method in brief: as §1

Bendamustine = compound: Cn1c(CCCC(=O)O)nc2cc(N(CCCl)CCCl)ccc21 [Bendamustine]
Method in brief: as §1

Etoposide = compound: COc1cc([C@@H]2c3cc4c(cc3[C@@H](O[C@@H]3O[C@@H]5CO[C@@H](C)O[C@H]5[C@H](O)[C@H]3O)[C@H]3COC(=O)[C@H]23)OCO4)cc(OC)c1O [Etoposide]
Method in brief: as §1

Selinexor = compound: O=C(/C=C\n1cnc(-c2cc(C(F)(F)F)cc(C(F)(F)F)c2)n1)NNc1cnccn1 [Selinexor]
Method in brief: as §1

Midostaurin hydrate = compound: CO[C@@H]1[C@H](N(C)C(=O)c2ccccc2)C[C@H]2O[C@]1(C)n1c3ccccc3c3c4c(c5c6ccccc6n2c5c31)C(=O)NC4 [Midostaurin hydrate]
Method in brief: as §1

SGC 0946 = compound: CC(C)N(CCCNC(=O)Nc1ccc(C(C)(C)C)cc1)C[C@H]1O[C@@H](n2cc(Br)c3c(N)ncnc32)[C@H](O)[C@@H]1O [SGC 0946]
Method in brief: as §1

Roscovitine = compound: CC[C@H](CO)Nc1nc(NCc2ccccc2)c2ncn(C(C)C)c2n1 [Roscovitine]
Method in brief: as §1

Entospletinib = compound: c1cn2cc(-c3ccc4cn[nH]c4c3)nc(Nc3ccc(N4CCOCC4)cc3)c2n1 [Entospletinib]
Method in brief: as §1

Palbociclib = compound: CC(=O)c1c(C)c2cnc(Nc3ccc(N4CCNCC4)cn3)nc2n(C2CCCC2)c1=O [Palbociclib]
Method in brief: as §1

Barasertib = compound: CCN(CCCOc1ccc2c(Nc3cc(CC(=O)Nc4cccc(F)c4)[nH]n3)ncnc2c1)CCOP(=O)(O)O [Barasertib]
Method in brief: as §1

With primary DLBCL patient cells (S082) the viability (CPI-169; 0.024 µM) was 0.893, the viability (CPI-169; 0.12 µM) was 0.906 and the viability (CPI-169; 0.6 µM) was 0.87. For the same test system, the viability (CPI-169; 3 µM) was 0.859, the viability (CPI-169; 15 µM) was 0.866 and the viability (Tofacitinib; 0.024 µM) was 0.93. The viability (Tofacitinib; 0.12 µM) was 0.941, the viability (Tofacitinib; 0.6 µM) was 0.967 and the viability (Tofacitinib; 3 µM) was 1.08. The viability (Tofacitinib; 15 µM) was 1.02, the viability (Everolimus; 0.0032 µM) was 0.892 and the viability (Everolimus; 0.016 µM) was 0.816. For the same test system, the viability (Everolimus; 0.08 µM) was 0.841, the viability (Everolimus; 0.4 µM) was 0.782 and the viability (Everolimus; 2 µM) was 0.807. It also gave a viability (EPZ-6438; 0.024 µM) of 0.978, a viability (EPZ-6438; 0.12 µM) of 0.97 and a viability (EPZ-6438; 0.6 µM) of 0.962. For the same test system, the viability (EPZ-6438; 3 µM) was 0.896, the viability (EPZ-6438; 15 µM) was 0.905 and the viability (Bendamustine; 0.032 µM) was 1.04. It also gave a viability (Bendamustine; 0.16 µM) of 1.09, a viability (Bendamustine; 0.8 µM) of 1.07 and a viability (Bendamustine; 4 µM) of 1.04. The viability (Bendamustine; 20 µM) was 0.962, the viability (Etoposide; 0.032 µM) was 1.08 and the viability (Etoposide; 0.16 µM) was 1.02. It also gave a viability (Etoposide; 0.8 µM) of 0.974, a viability (Etoposide; 4 µM) of 1 and a viability (Etoposide; 20 µM) of 0.664. The viability (Selinexor; 0.008 µM) was 0.931, the viability (Selinexor; 0.04 µM) was 0.971 and the viability (Selinexor; 0.2 µM) was 1.03. It also gave a viability (Selinexor; 1 µM) of 0.939, a viability (Selinexor; 5 µM) of 0.917 and a viability (Midostaurin hydrate; 0.024 µM) of 1.03. It also gave a viability (Midostaurin hydrate; 0.12 µM) of 0.986, a viability (Midostaurin hydrate; 0.6 µM) of 0.999 and a viability (Midostaurin hydrate; 3 µM) of 0.814. The viability (Midostaurin hydrate; 15 µM) was 0.224, the viability (SGC 0946; 0.024 µM) was 0.899 and the viability (SGC 0946; 0.12 µM) was 0.975. For the same test system, the viability (SGC 0946; 0.6 µM) was 0.932, the viability (SGC 0946; 3 µM) was 0.91 and the viability (SGC 0946; 15 µM) was 0.834. The viability (Roscovitine; 0.032 µM) was 0.912, the viability (Roscovitine; 0.16 µM) was 0.84 and the viability (Roscovitine; 0.8 µM) was 0.935. The viability (Roscovitine; 4 µM) was 0.975, the viability (Roscovitine; 20 µM) was 0.852 and the viability (Entospletinib; 0.024 µM) was 1.04. For the same test system, the viability (Entospletinib; 0.12 µM) was 1.03, the viability (Entospletinib; 0.6 µM) was 0.89 and the viability (Entospletinib; 3 µM) was 0.98. It also gave a viability (Entospletinib; 15 µM) of 0.926, a viability (Palbociclib; 0.024 µM) of 0.976 and a viability (Palbociclib; 0.12 µM) of 0.92. The viability (Palbociclib; 0.6 µM) was 0.847, the viability (Palbociclib; 3 µM) was 0.848 and the viability (Palbociclib; 15 µM) was 0.712. For the same test system, the viability (Barasertib; 0.0008 µM) was 0.93, the viability (Barasertib; 0.004 µM) was 0.902 and the viability (Barasertib; 0.02 µM) was 0.881. For the same test system, the viability (Barasertib; 0.1 µM) was 0.945 and the viability (Barasertib; 0.5 µM) was 0.979.
Test System primary AML patient cells (S025) has a viability (CPI-169; 0.024 µM) of 0.866, a viability (CPI-169; 0.12 µM) of 0.926 and a viability (CPI-169; 0.6 µM) of 0.902. It also gave a viability (CPI-169; 3 µM) of 1.12, a viability (CPI-169; 15 µM) of 1.12 and a viability (Tofacitinib; 0.024 µM) of 0.926. The viability (Tofacitinib; 0.12 µM) was 0.932, the viability (Tofacitinib; 0.6 µM) was 0.936 and the viability (Tofacitinib; 3 µM) was 0.893. It also gave a viability (Tofacitinib; 15 µM) of 0.915, a viability (Everolimus; 0.0032 µM) of 0.974 and a viability (Everolimus; 0.016 µM) of 1.05. It also gave a viability (Everolimus; 0.08 µM) of 1.01, a viability (Everolimus; 0.4 µM) of 0.983 and a viability (Everolimus; 2 µM) of 0.94. For the same test system, the viability (EPZ-6438; 0.024 µM) was 0.985, the viability (EPZ-6438; 0.12 µM) was 1.07 and the viability (EPZ-6438; 0.6 µM) was 1.02. For the same test system, the viability (EPZ-6438; 3 µM) was 0.984, the viability (EPZ-6438; 15 µM) was 0.923 and the viability (Bendamustine; 0.032 µM) was 1.08. It also gave a viability (Bendamustine; 0.16 µM) of 1.11, a viability (Bendamustine; 0.8 µM) of 1.01 and a viability (Bendamustine; 4 µM) of 0.918. The viability (Bendamustine; 20 µM) was 0.783, the viability (Etoposide; 0.032 µM) was 1.02 and the viability (Etoposide; 0.16 µM) was 1.08. For the same test system, the viability (Etoposide; 0.8 µM) was 0.938, the viability (Etoposide; 4 µM) was 0.673 and the viability (Etoposide; 20 µM) was 0.434. The viability (Selinexor; 0.008 µM) was 0.887, the viability (Selinexor; 0.04 µM) was 0.823 and the viability (Selinexor; 0.2 µM) was 0.75. It also gave a viability (Selinexor; 1 µM) of 0.439, a viability (Selinexor; 5 µM) of 0.514 and a viability (Midostaurin hydrate; 0.024 µM) of 0.955. For the same test system, the viability (Midostaurin hydrate; 0.12 µM) was 0.896, the viability (Midostaurin hydrate; 0.6 µM) was 1.03 and the viability (Midostaurin hydrate; 3 µM) was 1.32. The viability (Midostaurin hydrate; 15 µM) was 1.22, the viability (SGC 0946; 0.024 µM) was 0.922 and the viability (SGC 0946; 0.12 µM) was 1.02. The viability (SGC 0946; 0.6 µM) was 0.909, the viability (SGC 0946; 3 µM) was 0.874 and the viability (SGC 0946; 15 µM) was 0.618. For the same test system, the viability (Roscovitine; 0.032 µM) was 0.927, the viability (Roscovitine; 0.16 µM) was 0.971 and the viability (Roscovitine; 0.8 µM) was 1.04. The viability (Roscovitine; 4 µM) was 0.96, the viability (Roscovitine; 20 µM) was 0.726 and the viability (Entospletinib; 0.024 µM) was 0.997. The viability (Entospletinib; 0.12 µM) was 0.911, the viability (Entospletinib; 0.6 µM) was 0.887 and the viability (Entospletinib; 3 µM) was 0.937. For the same test system, the viability (Entospletinib; 15 µM) was 0.993, the viability (Palbociclib; 0.024 µM) was 1.01 and the viability (Palbociclib; 0.12 µM) was 0.969. It also gave a viability (Palbociclib; 0.6 µM) of 0.934, a viability (Palbociclib; 3 µM) of 0.851 and a viability (Palbociclib; 15 µM) of 0.809. It also gave a viability (Barasertib; 0.0008 µM) of 1, a viability (Barasertib; 0.004 µM) of 1 and a viability (Barasertib; 0.02 µM) of 0.907. The viability (Barasertib; 0.1 µM) was 0.836 and the viability (Barasertib; 0.5 µM) was 0.82.

From the supplement of paper PMC10733146
